Test results published in patent US20100093667A1, “SALTS OF HIV INHIBITOR COMPOUNDS” (Gilead Sciences, Inc., priority 2008, published 2010).

System: HIV-1 IIIB
Assay: Anti-HIV-1 activity in MT-2 cells, virus-induced cytopathic effect (CellTiter-Glo)
Type: cell-based
Procedure: MT-2 cells were maintained in RPMI-1640 medium supplemented with antibiotics and 10% fetal bovine serum (FBS). MT-2 cells were infected with HIV-1 IIIB at a multiplicity of infection (moi) of 0.01 and added to 96-well plates with serial dilutions of tested compounds at a density of 20,000 cells/well. […] Activity against NRTI-resistant mutants was determined in parallel with wild-type control virus and fold change in EC50 was calculated.

CCOC(=O)[C@H](C)N[P@](=O)(CO[C@@H]1C=C(F)[C@H](n2cnc3c(N)ncnc32)O1)Oc1ccccc1 (single isomer, unassigned) [Prodrug]
EC50 (Human immunodeficiency virus 1, MT2, 120 h, MT-2 cells, HIV-1 IIIB, 5-day incubation, mean ± SD): 150 ± 40 nM | more potent than the parent compound (MT-2): 71 fold
